According to patent publication US20210261507A1, “Crystalline Form of Fluopyram” (Bayer Aktiengesellschaft, priority 2018, published 2021):
“And” between values parts separate entries of the source, which are not always exact repeats. Equal entries are not always repeated.

What was measured:
Format in all cases: physicochemical
[1] = Aspect ratio of crystals measured from microscopic images of suspension concentrate formulations; settings: for Aspect ratio, mean: mean of 10 crystals, tables 5.1 to 5.4; for Crystal shape (FIGS. 3a-3d): microscopic images
Protocol: In an example the aspect ratio for crystals of fluopyram and other different active ingredients was measured from microscopic images taken from suspension concentrate formulations after crystal growth had occurred, diluted to approximately 1% in water. For the purpose of this invention the length is defined as the longest dimension and the width as the shortest dimension of a 2-dimensional image obtained in a transmission optical microscope. The aspect ratio was determine by the dividing the length by the width.

[2] = Ageing of fluopyram suspension concentrate, crystal habit; settings: 500 g/L suspension concentrate, 1 month at 40 to 45° C.
Protocol: In an example 500 g/L of fluopyram crystalline active ingredient was added to a mixture of 65 g/L wetters and dispersants, 80 g/L propylene glycol, 2 g/L silicone antifoam in 432 g/L with high shear mixing (Ultra-Turrax®) to reduce the particle size D(v,0.9) to approximately 50 microns, then passed through a bead mill (Eiger® 250 Mini Motormill) to achieve a particles size D(v,0.9) typically 1 to 15 microns. Then a gel composed of 2.4 g/L xanthan and 1 g/L biocide in 117 g/L water was added with low shear mixing (stirrer).

[3] = EC formulation diluted in water and evaporated on the leaf surface, crystal habit; settings: dilution at 1% in water
Protocol: In an example an EC formulation was prepared by dissolving 1 to 500 g/L of fluopyram in a mixture comprising a certain amount of emulsifiers and a certain amount of solvent.

[4] = Table 6, crystals present in suspension concentrate formulations, from tables 5.1 to 5.4

Row | SMILES | Aspect ratio [1, 4] | Aspect ratio, mean [1] | Crystal shape (FIGS. 3a-3d) [1] | Crystal appearance after ageing [2] | Crystals produced after dilution and evaporation [3] | Aspect ratio ([1]; single crystals, length divided by width)
1 | CON=C(C(=O)OC)c1ccccc1CON=C(C)c1cccc(C(F)(F)F)c1 [trifloxystrobin] | 1.25 | 1.25 | cubic shaped forms |  |  | 
2 | O=C(NCCc1ncc(C(F)(F)F)cc1Cl)c1ccccc1C(F)(F)F [fluopyram, N-{2-[3-chloro-5-(trifluoromethyl)-2-pyridyl]ethyl}-α,α,α-trifluoro-o-tolu amide] | 12.02 | 12.02 | needle-like habit | needle-like appearance | needle shaped crystals | 
3 | CC(C)(C)C(O)(CCc1ccc(Cl)cc1)Cn1cncn1 (stereo not drawn) [tebuconazole] | 1.15 | 1.15 | cubic shaped forms |  |  | 1.00 and 1.20 and 1.30 and 1.02 and 1.22 and 0.83 and 1.07 and 1.44
4 | Cc1cc(C)nc(Nc2ccccc2)n1 [pyrimethanil] | 1.44 | 1.44 | cubic shaped forms |  |  | 
